The record followed here is PMC11009388, “Insights into the molecular mechanism of yellow cuticle coloration by a chitin-binding carotenoprotein in gregarious locusts” (Communications Biology, 2024).

The target in test [1] is T1, BBP (β-carotene-binding protein), recombinant (Schistocerca gregaria, UniProt A0A6N3ISN1).
T1 construct: gene YPT; mature form residues 23-273, signal peptide removed; N-terminal His6 tag cleaved by 3C leaving GSHM; E. coli C41(DE3) making carotenoids
T1 sequence (A0A6N3ISN1 23-273): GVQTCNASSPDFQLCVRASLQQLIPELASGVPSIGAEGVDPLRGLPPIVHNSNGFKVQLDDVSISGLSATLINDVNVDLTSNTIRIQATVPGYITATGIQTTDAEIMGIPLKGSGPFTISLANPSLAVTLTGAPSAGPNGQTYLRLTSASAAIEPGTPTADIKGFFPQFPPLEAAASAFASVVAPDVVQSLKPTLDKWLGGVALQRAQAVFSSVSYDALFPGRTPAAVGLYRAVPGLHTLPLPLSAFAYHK
Put plainly: HPLC of bound carotenoid, absorbance, CD and Raman spectra, SEC of holoprotein. To be noted: reconstituted in β-carotene-producing E. coli; 20 mM Tris-HCl pH 7.5, 150 mM NaCl.

For test [2], the target named is recombinant β-carotene-binding protein from Schistocerca gregaria in complex with β-carotene, BBP(βCar) (Schistocerca gregaria). Kind of test: cross-linking; glutaraldehyde 0.23%, 15 min at 30 °C, 20 mM HEPES pH 7.5, 150 mM NaCl; analysed by SDS-PAGE.
The target is the same in test [3]. Put plainly: SEC-MALS; Superdex 200 Increase 10/300, 20 mM Tris pH 7.5, 150 mM NaCl, 3 mM βME, 0.8 mL/min; self-association of BBP(βCar).
The target is the same in test [4]. Put plainly: SEC; spectrochromatography on Superdex 200 Increase 5/150, 0.45 mL/min; 20 mM Tris-HCl pH 7.5, 150 mM NaCl, 3 mM βME, also with 2 M urea or 0.05% DOC, or 10 mM MES pH 6.0, 150 mM NaCl; apparent Mw from column calibration.
Test [5] concerns the target native BBP extracted from the yellow locust cuticle (Schistocerca gregaria (endogenous in locust cuticle)). Put plainly: SEC; clarified soluble extract of yellow locust cuticle on Superdex 200 Increase 5/150, 0.45 mL/min; 20 mM Tris-HCl pH 7.5, 150 mM NaCl, 3 mM βME, 0.5 mM PMSF; apparent Mw from column calibration.
Test [6] concerns the target T1, BBP (β-carotene-binding protein), recombinant. Put plainly: HPLC of carotenoids bound to purified protein. To be noted: late induction in ECH/CAN-producing E. coli; competing with β-carotene in membranes.
Another test deals with T2, BmCBP (Bombyx mori, UniProt Q8MYA9).
T2 construct: residues 68-297 (START domain), His-tag cleaved, preparation from previous work
T2 sequence (Q8MYA9 68-297): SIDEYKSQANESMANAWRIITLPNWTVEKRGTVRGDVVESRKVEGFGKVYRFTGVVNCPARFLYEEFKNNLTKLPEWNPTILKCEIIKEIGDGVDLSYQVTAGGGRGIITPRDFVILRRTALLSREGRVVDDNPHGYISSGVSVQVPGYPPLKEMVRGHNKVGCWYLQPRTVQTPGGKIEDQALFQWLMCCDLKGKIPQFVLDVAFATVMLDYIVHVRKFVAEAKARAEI
Kind of test: induced UV/Vis circular dichroism, absorbance spectrum, SECmelt. The format is binding. To be noted: 20 mM phosphate pH 7.2 (CD); sample has excess apoform. Background: CD spectra are sensitive to the conformation of chiral molecules.

Values joined by “and” are separate entries in the source; they are usually repeats but may differ in a detail not shown here. Identical values can stand only once.

On to `CC1=C(/C=C/C(C)=C/C=C/C(C)=C/C=C/C=C(C)/C=C/C=C(C)/C=C/C2=C(C)CCCC2(C)C)C(C)(C)CCC1` [βCar, β-carotene], for which, in test [1], the “HPLC of bound carotenoid, absorbance, CD and Raman spectra, SEC of holoprotein” value is given as “recombinant BBP, like native BBP from locusts, indeed contains almost exclusively β-carotene”.

A word on the stoichiometry N: it is a count of units in the complex or per binding partner. Turning to “recombinant β-carotene-binding protein from Schistocerca gregaria in complex with β-carotene, BBP(βCar) (from UniProt A0A6N3ISN1 23-273) (natural protein)”, the stoichiometry N in test [2] was 4 and 2; in test [3] it was 2; in test [4] it was 2 and 4.

Turning to “native BBP extracted from the yellow locust cuticle (natural protein)”, the stoichiometry N in test [5] stood at 2.

Take `CC1=C(/C=C/C(C)=C/C=C/C(C)=C/C=C/C=C(C)/C=C/C=C(C)/C=C/C2=C(C)C(=O)CCC2(C)C)C(C)(C)CCC1=O` [CAN, canthaxanthin]: the “HPLC of carotenoids bound to purified protein” value in test [6] is listed as “also exhibits capacity to bind ECH and, less efficiently, CAN”.

Regarding `CC1=C(/C=C/C(C)=C/C=C/C(C)=C/C=C/C=C(C)/C=C/C=C(C)/C=C/C2=C(C)C[C@@H](O)CC2(C)C)C(C)(C)C[C@H](O)C1` [ZEA, zeaxanthin], the “induced UV/Vis circular dichroism, absorbance spectrum, SECmelt” value at BmCBP is “UV/Vis circular dichroism spectrum was distinctly different from that of the BmCBP complex with ZEA”.

Consider `CC1=C(/C=C/C(C)=C/C=C/C(C)=C/C=C/C=C(C)/C=C/C=C(C)/C=C/C2=C(C)C(=O)CCC2(C)C)C(C)(C)CCC1` [ECH, echinenone], for which the “HPLC of carotenoids bound to purified protein” value in test [6] is “BBP avidly binds β-carotene but also exhibits capacity to bind ECH”.
